Results from PMC4441267.

Columns and labels:
[1] = CuAAC macrocyclisation to 1,4-triazole (CuI 2 eq, DIPEA 3 eq), Boc retained; conditions: THF (reflux), 1.2 mM, 66.0 °C, 18.0 h
[2] = CuAAC macrocyclisation of azide/terminal alkyne linear peptidomimetics to 1,4-triazole (CuI 2 eq, DIPEA 3 eq, Ar-degassed), then Boc removal (TMSCl/MeOH GP4; HCl/dioxane GP5 for A13w, J13w); conditions: THF (reflux), 1.2 mM, 66.0 °C, 18.0 h, 2 steps

Work on `COC(=O)[C@@H]1CCCCn2cc(nn2)CNC(=O)NCC[C@H](NC(=O)OC(C)(C)C)C(=O)N[C@H](C(=O)OC)CCC(=O)N1` [Boc-Dab(CONH-propargyl)-Glu(gamma-Lys(N3)-OMe)-OMe] yielded a ring closure, isolated yield ([1]; from C#CCNC(=O)NCC[C@H](NC(=O)OC(C)(C)C)C(=O)N[C@@H](CCC(=O)N[C@@H](CCCCN=[N+]=[N-])C(=O)OC)C(=O)OC, 22-membered ring) of 67%.

For `COC(=O)[C@@H]1CCCCn2cc(nn2)CCC(=O)NC[C@H](NC(=O)OC(C)(C)C)C(=O)N[C@H](C(=O)OC)CCC(=O)N1` [Boc-Dap(4-pentynoyl)-Glu(gamma-Lys(N3)-OMe)-OMe], the ring closure, isolated yield ([1]; from C#CCCC(=O)NC[C@H](NC(=O)OC(C)(C)C)C(=O)N[C@@H](CCC(=O)N[C@@H](CCCCN=[N+]=[N-])C(=O)OC)C(=O)OC, 21-membered ring) was 94%.

`COC(=O)[C@@H]1CCCCn2cc(nn2)CCCC(=O)NC[C@H](NC(=O)OC(C)(C)C)C(=O)N[C@H](C(=O)OC)CCC(=O)N1` [Boc-Dap(5-hexynoyl)-Glu(gamma-Lys(N3)-OMe)-OMe] gave a ring closure, isolated yield ([1]; from C#CCCCC(=O)NC[C@H](NC(=O)OC(C)(C)C)C(=O)N[C@@H](CCC(=O)N[C@@H](CCCCN=[N+]=[N-])C(=O)OC)C(=O)OC, 22-membered ring) of 69%.

`COC(=O)[C@@H]1CCCCn2cc(nn2)CNC(=O)NC[C@H](NC(=O)OC(C)(C)C)C(=O)N[C@H](C(=O)OC)CCC(=O)N1` [Boc-Dap(CONH-propargyl)-Glu(gamma-Lys(N3)-OMe)-OMe] gave a ring closure, isolated yield ([1]; from C#CCNC(=O)NC[C@H](NC(=O)OC(C)(C)C)C(=O)N[C@@H](CCC(=O)N[C@@H](CCCCN=[N+]=[N-])C(=O)OC)C(=O)OC, 21-membered ring) of 99%.

For `COC(=O)[C@@H]1CCCCn2cc(nn2)CCC(=O)NCCCC[C@H](NC(=O)OC(C)(C)C)C(=O)N[C@H](C(=O)OC)CCC(=O)N1` [Boc-Lys(4-pentynoyl)-Glu(gamma-Lys(N3)-OMe)-OMe], the ring closure, isolated yield ([1]; from C#CCCC(=O)NCCCC[C@H](NC(=O)OC(C)(C)C)C(=O)N[C@@H](CCC(=O)N[C@@H](CCCCN=[N+]=[N-])C(=O)OC)C(=O)OC, 24-membered ring) was 69%.

`COC(=O)[C@@H]1CCCCn2cc(nn2)CCCC(=O)NCCCC[C@H](NC(=O)OC(C)(C)C)C(=O)N[C@H](C(=O)OC)CCC(=O)N1` [Boc-Lys(5-hexynoyl)-Glu(gamma-Lys(N3)-OMe)-OMe] showed a ring closure, isolated yield ([1]; from C#CCCCC(=O)NCCCC[C@H](NC(=O)OC(C)(C)C)C(=O)N[C@@H](CCC(=O)N[C@@H](CCCCN=[N+]=[N-])C(=O)OC)C(=O)OC, 25-membered ring) of 70%.

Compound `COC(=O)[C@@H]1CCCCn2cc(nn2)CNC(=O)NCCCC[C@H](NC(=O)OC(C)(C)C)C(=O)N[C@H](C(=O)OC)CCC(=O)N1` [Boc-Lys(CONH-propargyl)-Glu(gamma-Lys(N3)-OMe)-OMe] has a ring closure, isolated yield ([1]; from C#CCNC(=O)NCCCC[C@H](NC(=O)OC(C)(C)C)C(=O)N[C@@H](CCC(=O)N[C@@H](CCCCN=[N+]=[N-])C(=O)OC)C(=O)OC, 24-membered ring) of 62%.

With `COC(=O)[C@@H]1CNC(=O)[C@H](Cc2ccccc2)n2cc(nn2)CCC(=O)NCCC[C@H](NC(=O)OC(C)(C)C)C(=O)N1` [Boc-Orn(4-pentynoyl)-Dap(N3-Phe)-OMe] the ring closure, yield over several steps ([2]; from C#CCCC(=O)NCCC[C@H](NC(=O)OC(C)(C)C)C(=O)N[C@@H](CNC(=O)[C@H](Cc1ccccc1)N=[N+]=[N-])C(=O)OC, 18-membered ring) was 45%.

For `COC(=O)[C@@H]1CCCCn2cc(nn2)CCC(=O)NCCC[C@H](NC(=O)OC(C)(C)C)C(=O)N[C@H](C(=O)OC)CCC(=O)N1` [Boc-Orn(4-pentynoyl)-Glu(gamma-Lys(N3)-OMe)-OMe], the ring closure, isolated yield ([1]; from C#CCCC(=O)NCCC[C@H](NC(=O)OC(C)(C)C)C(=O)N[C@@H](CCC(=O)N[C@@H](CCCCN=[N+]=[N-])C(=O)OC)C(=O)OC, 23-membered ring) was 71%.

In the case of `COC(=O)[C@@H]1CCCCn2cc(nn2)CCC(=O)NCCC[C@H](NC(=O)OC(C)(C)C)C(=O)N1` [Boc-Orn(4-pentynoyl)-Lys(N3)-OMe], the ring closure, yield over several steps ([2]; from C#CCCC(=O)NCCC[C@H](NC(=O)OC(C)(C)C)C(=O)N[C@@H](CCCCN=[N+]=[N-])C(=O)OC, 18-membered ring) is reported as 93%.

For `COC(=O)[C@@H]1CCCCNC(=O)[C@H](Cc2ccccc2)n2cc(nn2)CCC(=O)NCCC[C@H](NC(=O)OC(C)(C)C)C(=O)N1` [Boc-Orn(4-pentynoyl)-Lys(N3-Phe)-OMe], the ring closure, yield over several steps ([2]; from C#CCCC(=O)NCCC[C@H](NC(=O)OC(C)(C)C)C(=O)N[C@@H](CCCCNC(=O)[C@H](Cc1ccccc1)N=[N+]=[N-])C(=O)OC, 21-membered ring) was 88%.

For `COC(=O)[C@@H]1CCCn2cc(nn2)CCC(=O)NCCC[C@H](NC(=O)OC(C)(C)C)C(=O)N1` [Boc-Orn(4-pentynoyl)-Orn(N3)-OMe], the ring closure, yield over several steps ([2]; from C#CCCC(=O)NCCC[C@H](NC(=O)OC(C)(C)C)C(=O)N[C@@H](CCCN=[N+]=[N-])C(=O)OC, 17-membered ring) was 85%.

`COC(=O)[C@@H]1CNC(=O)[C@H](Cc2ccccc2)n2cc(nn2)CCCC(=O)NCCC[C@H](NC(=O)OC(C)(C)C)C(=O)N1` [Boc-Orn(5-hexynoyl)-Dap(N3-Phe)-OMe] showed a ring closure, yield over several steps ([2]; from C#CCCCC(=O)NCCC[C@H](NC(=O)OC(C)(C)C)C(=O)N[C@@H](CNC(=O)[C@H](Cc1ccccc1)N=[N+]=[N-])C(=O)OC, 19-membered ring) of 99%.

`COC(=O)[C@@H]1CCCCn2cc(nn2)CCCC(=O)NCCC[C@H](NC(=O)OC(C)(C)C)C(=O)N[C@H](C(=O)OC)CCC(=O)N1` [Boc-Orn(5-hexynoyl)-Glu(gamma-Lys(N3)-OMe)-OMe] gave a ring closure, isolated yield ([1]; from C#CCCCC(=O)NCCC[C@H](NC(=O)OC(C)(C)C)C(=O)N[C@@H](CCC(=O)N[C@@H](CCCCN=[N+]=[N-])C(=O)OC)C(=O)OC, 24-membered ring) of 99%.

Work on `COC(=O)[C@@H]1CCCCn2cc(nn2)CCCC(=O)NCCC[C@H](NC(=O)OC(C)(C)C)C(=O)N1` [Boc-Orn(5-hexynoyl)-Lys(N3)-OMe] yielded a ring closure, yield over several steps ([2]; from C#CCCCC(=O)NCCC[C@H](NC(=O)OC(C)(C)C)C(=O)N[C@@H](CCCCN=[N+]=[N-])C(=O)OC, 19-membered ring) of 99%.

Compound `COC(=O)[C@@H]1CCCCNC(=O)[C@H](Cc2ccccc2)n2cc(nn2)CCCC(=O)NCCC[C@H](NC(=O)OC(C)(C)C)C(=O)N1` [Boc-Orn(5-hexynoyl)-Lys(N3-Phe)-OMe] has a ring closure, yield over several steps ([2]; from C#CCCCC(=O)NCCC[C@H](NC(=O)OC(C)(C)C)C(=O)N[C@@H](CCCCNC(=O)[C@H](Cc1ccccc1)N=[N+]=[N-])C(=O)OC, 22-membered ring) of 99%.

`COC(=O)[C@@H]1CCCn2cc(nn2)CCCC(=O)NCCC[C@H](NC(=O)OC(C)(C)C)C(=O)N1` [Boc-Orn(5-hexynoyl)-Orn(N3)-OMe] gave a ring closure, yield over several steps ([2]; from C#CCCCC(=O)NCCC[C@H](NC(=O)OC(C)(C)C)C(=O)N[C@@H](CCCN=[N+]=[N-])C(=O)OC, 18-membered ring) of 71%.

In the case of `COC(=O)[C@@H]1CNC(=O)[C@H](Cc2ccccc2)n2cc(nn2)CNC(=O)NCCC[C@H](NC(=O)OC(C)(C)C)C(=O)N1` [Boc-Orn(CONH-propargyl)-Dap(N3-Phe)-OMe], the ring closure, yield over several steps ([2]; from C#CCNC(=O)NCCC[C@H](NC(=O)OC(C)(C)C)C(=O)N[C@@H](CNC(=O)[C@H](Cc1ccccc1)N=[N+]=[N-])C(=O)OC, 18-membered ring) is reported as 96%.

`COC(=O)[C@@H]1CCCCn2cc(nn2)CNC(=O)NCCC[C@H](NC(=O)OC(C)(C)C)C(=O)N1` [Boc-Orn(CONH-propargyl)-Lys(N3)-OMe] gave a ring closure, yield over several steps ([2]; from C#CCNC(=O)NCCC[C@H](NC(=O)OC(C)(C)C)C(=O)N[C@@H](CCCCN=[N+]=[N-])C(=O)OC, 18-membered ring) of 99%.

With `COC(=O)[C@@H]1CCCCNC(=O)[C@H](Cc2ccccc2)n2cc(nn2)CNC(=O)NCCC[C@H](NC(=O)OC(C)(C)C)C(=O)N1` [Boc-Orn(CONH-propargyl)-Lys(N3-Phe)-OMe] the ring closure, yield over several steps ([2]; from C#CCNC(=O)NCCC[C@H](NC(=O)OC(C)(C)C)C(=O)N[C@@H](CCCCNC(=O)[C@H](Cc1ccccc1)N=[N+]=[N-])C(=O)OC, 21-membered ring) was 87%.

`COC(=O)[C@@H]1CCCn2cc(nn2)CNC(=O)NCCC[C@H](NC(=O)OC(C)(C)C)C(=O)N1` [Boc-Orn(CONH-propargyl)-Orn(N3)-OMe] showed a ring closure, yield over several steps ([2]; from C#CCNC(=O)NCCC[C@H](NC(=O)OC(C)(C)C)C(=O)N[C@@H](CCCN=[N+]=[N-])C(=O)OC, 17-membered ring) of 99%.

`COC(=O)[C@@H]1CCCn2cc(nn2)CCCC(=O)Nc2ccc(cc2)C[C@H](NC(=O)OC(C)(C)C)C(=O)N[C@@H](C)C(=O)N1` [Boc-Phe(4-NH-5-hexynoyl)-Ala-Orn(N3)-OMe] gave a ring closure, yield over several steps ([2]; from C#CCCCC(=O)Nc1ccc(C[C@H](NC(=O)OC(C)(C)C)C(=O)N[C@@H](C)C(=O)N[C@@H](CCCN=[N+]=[N-])C(=O)OC)cc1, 23-membered ring) of 21%.

With `COC(=O)[C@@H]1CCCCNC(=O)[C@H](Cc2ccccc2)n2cc(nn2)CCCC(=O)Nc2ccc(cc2)C[C@H](NC(=O)OC(C)(C)C)C(=O)N1` [Boc-Phe(4-NH-5-hexynoyl)-Lys(N3-Phe)-OMe] the ring closure, yield over several steps ([2]; from C#CCCCC(=O)Nc1ccc(C[C@H](NC(=O)OC(C)(C)C)C(=O)N[C@@H](CCCCNC(=O)[C@H](Cc2ccccc2)N=[N+]=[N-])C(=O)OC)cc1, 24-membered ring) was 11%.
